Reference: PubChem BioAssay AID1963982 (Molecular Pharmacology Branch, DTP, NCI, 2024)

Tested on: 313798-341-R-J2-PDC spheroids, viability
Experiment: Anticancer human tumor 313798-341-R-J2-PDC patient-derived cervical squamous cell carcinoma cell line growth inhibition [PI3K]
Conditions: spheroids with HUVEC and MSC; for viability, T/C: stronger effect = lower value
Procedure, shortened: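 Tumor cells were combined with HUVEC and MSCs into spheroids, then dosed with PI3K-inhibitor combinations over half-log ranges capped near clinical Cmax or 10 microM.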

[1] = curve of first compound, second compound 0.0316 µM
[2] = curve of first compound, second compound 0.1 µM
[3] = curve of first compound, second compound 0.316 µM
[4] = curve of first compound, second compound 1 µM
[5] = curve of first compound, second compound 3.16 µM
[6] = curve of first compound, second compound 10 µM
[7] = second compound 0.0316 µM, first compound 0.0316 µM
[8] = second compound 0.0316 µM, first compound 0.1 µM
[9] = second compound 0.0316 µM, first compound 0.316 µM
[10] = second compound 0.0316 µM, first compound 1 µM
[11] = second compound 0.0316 µM, first compound 3.16 µM
[12] = second compound 0.0316 µM, first compound 10 µM
[13] = second compound 0.1 µM, first compound 0.0316 µM
[14] = second compound 0.1 µM, first compound 0.1 µM
[15] = second compound 0.1 µM, first compound 0.316 µM
[16] = second compound 0.1 µM, first compound 1 µM
[17] = second compound 0.1 µM, first compound 3.16 µM
[18] = second compound 0.1 µM, first compound 10 µM
[19] = second compound 0.316 µM, first compound 0.0316 µM
[20] = second compound 0.316 µM, first compound 0.1 µM
[21] = second compound 0.316 µM, first compound 0.316 µM
[22] = second compound 0.316 µM, first compound 1 µM
[23] = second compound 0.316 µM, first compound 3.16 µM
[24] = second compound 0.316 µM, first compound 10 µM
[25] = second compound 1 µM, first compound 0.0316 µM
[26] = second compound 1 µM, first compound 0.1 µM
[27] = second compound 1 µM, first compound 0.316 µM
[28] = second compound 1 µM, first compound 1 µM
[29] = second compound 1 µM, first compound 3.16 µM
[30] = second compound 1 µM, first compound 10 µM
[31] = second compound 3.16 µM, first compound 0.0316 µM
[32] = second compound 3.16 µM, first compound 0.1 µM
[33] = second compound 3.16 µM, first compound 0.316 µM
[34] = second compound 3.16 µM, first compound 1 µM
[35] = second compound 3.16 µM, first compound 3.16 µM
[36] = second compound 3.16 µM, first compound 10 µM
[37] = second compound 10 µM, first compound 0.0316 µM
[38] = second compound 10 µM, first compound 0.1 µM
[39] = second compound 10 µM, first compound 0.316 µM
[40] = second compound 10 µM, first compound 1 µM
[41] = second compound 10 µM, first compound 3.16 µM
[42] = second compound 10 µM, first compound 10 µM
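Also: spheroids exposed to compounds for seven days.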
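For viability, T/C in this document: 100% = DMSO vehicle control viability.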

With `C[C@@H](NC(=O)c1ncnc(N)c1Cl)c1ncc(C(=O)Nc2cc(C(F)(F)F)c(Cl)cn2)s1` + CC(Nc1ncnc2nc[nH]c12)c1cc2cccc(Cl)c2c(=O)n1-c1ccccc1 the IC50 [1] was over 10 µM, the IC50 [2] was over 10 µM and the IC50 [3] was over 10 µM. It also gave an IC50 [4] of over 10 µM, an IC50 [5] of over 10 µM and an IC50 [6] of over 10 µM. For the same molecule, the viability, T/C [7] was 90.2%, the viability, T/C [8] was 104% and the viability, T/C [9] was 106%. It also gave a viability, T/C [10] of 112%, a viability, T/C [11] of 100% and a viability, T/C [12] of 101%. It also gave a viability, T/C [13] of 98.3%, a viability, T/C [14] of 100% and a viability, T/C [15] of 98.3%. For the same molecule, the viability, T/C [16] was 98.7%, the viability, T/C [17] was 110% and the viability, T/C [18] was 117%. It also gave a viability, T/C [19] of 99.3%, a viability, T/C [20] of 102% and a viability, T/C [21] of 101%. For the same molecule, the viability, T/C [22] was 97.7%, the viability, T/C [23] was 103% and the viability, T/C [24] was 105%. For the same molecule, the viability, T/C [25] was 98.5%, the viability, T/C [26] was 106% and the viability, T/C [27] was 90.9%. For the same molecule, the viability, T/C [28] was 101%, the viability, T/C [29] was 104% and the viability, T/C [30] was 95.7%. The viability, T/C [31] was 98%, the viability, T/C [32] was 100% and the viability, T/C [33] was 98.6%. It also gave a viability, T/C [34] of 98.9%, a viability, T/C [35] of 106% and a viability, T/C [36] of 96.1%. For the same molecule, the viability, T/C [37] was 94%, the viability, T/C [38] was 85.2% and the viability, T/C [39] was 82.8%. It also gave a viability, T/C [40] of 86.7%, a viability, T/C [41] of 89.9% and a viability, T/C [42] of 88.6%.

Molecule `Cn1nccc1Nc1nccc(-c2ccn(C(CO)c3ccc(Cl)c(F)c3)c(=O)c2)n1` (stereo unspecified) + CC(Nc1ncnc2nc[nH]c12)c1cc2cccc(Cl)c2c(=O)n1-c1ccccc1 has an IC50 [1] of over 10 µM, an IC50 [2] of over 10 µM and an IC50 [3] of over 10 µM. It also gave an IC50 [4] of over 10 µM, an IC50 [5] of over 10 µM and an IC50 [6] of over 10 µM. For the same molecule, the viability, T/C [7] was 92.4%, the viability, T/C [8] was 94.5% and the viability, T/C [9] was 90.1%. The viability, T/C [10] was 99.1%, the viability, T/C [11] was 91.3% and the viability, T/C [12] was 95.1%. For the same molecule, the viability, T/C [13] was 100%, the viability, T/C [14] was 108% and the viability, T/C [15] was 97.7%. For the same molecule, the viability, T/C [16] was 104%, the viability, T/C [17] was 105% and the viability, T/C [18] was 94.2%. The viability, T/C [19] was 114%, the viability, T/C [20] was 95.7% and the viability, T/C [21] was 90.2%. The viability, T/C [22] was 95%, the viability, T/C [23] was 110% and the viability, T/C [24] was 101%. It also gave a viability, T/C [25] of 102%, a viability, T/C [26] of 85.4% and a viability, T/C [27] of 107%. It also gave a viability, T/C [28] of 98.9%, a viability, T/C [29] of 93.5% and a viability, T/C [30] of 94.1%. The viability, T/C [31] was 97.6%, the viability, T/C [32] was 96% and the viability, T/C [33] was 94.1%. The viability, T/C [34] was 87.7%, the viability, T/C [35] was 89.9% and the viability, T/C [36] was 90.6%. The viability, T/C [37] was 98.8%, the viability, T/C [38] was 75.3% and the viability, T/C [39] was 77.8%. The viability, T/C [40] was 78.7%, the viability, T/C [41] was 85.8% and the viability, T/C [42] was 73.8%.

With `Cc1nc(NC(=O)N2CCCC2C(N)=O)sc1-c1ccnc(C(C)(C)C(F)(F)F)c1` (stereo unspecified) the viability, T/C (compound 0.0316 µM) was 99.9% [middle of 8 runs], the viability, T/C (compound 0.1 µM) was 97.5% [middle of 8 runs] and the viability, T/C (compound 0.316 µM) was 102% [middle of 8 runs]. For the same molecule, the viability, T/C (compound 1 µM) was 90.6% [middle of 8 runs], the viability, T/C (compound 3.16 µM) was 59.9% [middle of 8 runs] and the viability, T/C (compound 10 µM) was 36.2% [middle of 8 runs]. For the same molecule, the IC50 (compound alone, run of 04/24/2023) was 4.93 µM [middle of 8 runs].
